# Data as given in patent US20160045505A1, “COMPOUNDS AND COMPOSITIONS FOR THE TREATMENT OF PARASITIC DISEASES” (NOVARTIS AG, priority 2013, published 2016).
# Where two headings read alike, the source gives them in different places.
# Experiments:
# [1] = test system: Leishmania donovani axenic amastigote parasites; test: Leishmania donovani axenic amastigote proliferation assay (Cell TiterGlo luminescence, 2 day incubation); assay type: cell-based; details: Leishmania donovani
# [2] = test system: L. donovani HU3 strain in mouse peritoneal macrophages; test: Assay for proliferation of Leishmania parasites in infected mouse peritoneal macrophages (SybrGreen staining, high-content imaging, 5 days); assay type: cell-based, Leishmania donovani; details: Leishmania donovani, Peritoneal macrophage
# [3] = test system: Trypanosoma brucei Lister 427 strain, bloodstream form; test: Assay for proliferation of kinetoplastid parasite Trypanosoma brucei (Cell Titer Glo, 48 hours); assay type: cell-based; details: Trypanosoma brucei, T. brucei Lister 427 bloodstream form, read-out: T. brucei EC50
# Excerpt: Assay for Proliferation of Kinetoplastid Parasite Trypanosoma brucei.
# The proliferation is quantified by the addition of Cell Titer Glo (Promega®) a luminescent cell viability assay that measures the number of viable cells in culture based on the quantification of cellular ATP amount, which is an indicator of metabolically active cells.
# The following assay illustrates the invention without in any way limiting the scope of the invention. This parasite proliferation assay measures the increase in parasite growth using an assay that measures ATP activity, Cell Titer Glo®.
# Trypanosoma brucei Lister 427 strain is grown in HMI-9 Trypanosome media for T. brucei bloodstream form. 30 μl of HMI-9 media is dispensed into 384 well assay plates. 200 nl of compounds of the invention (in DMSO), including anti-trypanosome controls (Pentamidine and suramin), are then transferred into the assay plates, as well as DMSO alone to serve as a negative control for inhibition. Then 25 μl of a suspension of T. brucei culture in HMI-9 media is dispensed into the assay plates. The final concentration of parasites in culture corresponds to 1.7% of 0.5 uM ATP activity with Cell Titer Glo® in HMI-9 media. The plates are placed in a 37° C. incubator for 48 hours in an atmospheric environment containing 5% CO2. 40 μl of Cell Titer Glo® is dispensed into the plates. The plates are then read for luminescence. The percentage inhibition of 50%, EC50, is calculated for each compound.
# [4] = test system: Trypanosoma cruzi amastigotes (Tulahuen strain expressing Lac-Z) cultured in 3T3 fibroblast cells; test: microbe, parasite or virus in culture; assay type: cell-based; details: Trypanosoma cruzi, TULAHUEN, Fibroblast
# [5] = axenic amastigotes, inhibition of proliferation, read-out: L. donovani amastigotes EC50
# [6] = L. donovani in mouse peritoneal macrophages, inhibition of proliferation, read-out: L. donovani Macrophage EC50
# [7] = L. donovani axenic amastigotes, read-out: L. donovani amastigotes EC50
# [8] = L. donovani in mouse peritoneal macrophages, read-out: L. donovani Macrophage EC50
# [9] = T. cruzi amastigotes in 3T3 fibroblast cells, read-out: T cruzi EC50
SMILES,"EC50 [1, 5]","EC50 [2, 6]",EC50 ([3]; inhibition of proliferation),"EC50 [1, 7]",further results
"CC(C)OC(=O)Nc1cnc2nc(-c3cc(NC(=O)N4CCC(F)(F)C4)ccc3Cl)cn2c1 [Compound 4, isopropyl (2-(2-chloro-5-(3,3-difluoropyrrolidine-1-carboxamido)phenyl)imidazo[1,2-a]pyrimidin-6-yl)carbamate]",1.34 µM,2.22 µM,2360 nM,–,–
CCN(C)C(=O)Nc1cccc(-c2cn3cc(NC(=O)OC(C)C)cnc3n2)c1 [Compound 6],22.3 µM,9.2 µM,664 nM,–,–
CCN(C)C(=O)Nc1ccc(F)c(-c2cn3cc(NC(=O)OC(C)C)cnc3n2)c1 [Compound 9],2.48 µM,1.32 µM,191 nM,–,–
CCOC(=O)Nc1cccc(-c2cn3cc(NC(=O)OC(C)C)cnc3n2)c1 [Compound 10],2.98 µM,2.36 µM,231 nM,–,–
CC(C)OC(=O)Nc1cnc2nc(-c3cccc(NC(=O)c4nccs4)c3)cn2c1 [Compound 11],3.8 µM,5 µM,659 nM,–,–
"CC(C)OC(=O)Nc1cnc2nc(-c3cc(NC(=O)c4ccco4)ccc3F)cn2c1 [Compound 12, isopropyl (2-(2-fluoro-5-(furan-2-carboxamido)phenyl)imidazo[1,2-a]pyrimidin-6-yl)carbamate]",–,–,65.6 nM,–,–
Cc1ccc(C(=O)Nc2cccc(-c3cn4cc(NC(=O)OC(C)C)cnc4n3)c2)o1 [Compound 13],1.72 µM,0.81 µM,181 nM,–,–
CCN(CC)C(=O)Nc1cccc(-c2cn3cc(NC(=O)OC(C)C)cnc3n2)c1 [Compound 16],> 25 µM,14 µM,1640 nM,–,–
CC(C)OC(=O)Nc1cnc2nc(-c3cccc(NC(=O)c4ccc(Cl)o4)c3)cn2c1 [Compound 18],0.41 µM,0.172 µM,56.8 nM,–,–
CC(C)OC(=O)Nc1cnc2nc(-c3cccc(NC(=O)N(C)C)c3)cn2c1 [Compound 20],13.4 µM,7.9 µM,2000 nM,–,–
CC(C)OC(=O)Nc1cccc(-c2cn3cc(NC(=O)OC(C)C)cnc3n2)c1 [Compound 21],1.97 µM,1.05 µM,187 nM,–,–
Cc1nc(C)c(C(=O)Nc2cccc(-c3cn4cc(NC(=O)OC(C)C)cnc4n3)c2)o1 [Compound 22],1.24 µM,0.53 µM,384 nM,–,–
"COC(=O)Nc1ccc(-c2cnc3nc(-c4cc(NC(=O)N5CCCC5)ccc4Cl)cn3c2)cc1 [Compound 24, methyl (4-(2-(2-chloro-5-(pyrrolidine-1-carboxamido)phenyl)imidazo[1,2-a]pyrimidin-6-yl)phenyl)carbamate]",0.0199 µM,0.057 µM,8.45 nM,–,–
O=C(Nc1ccc(Cl)c(-c2cn3cc(-c4ccc(F)cc4)cnc3n2)c1)N1CCCC1 [Compound 25],0.054 µM,0.1 µM,27.5 nM,–,–
CC(C)OC(=O)Nc1ccc(F)c(-c2cn3cc(NC(=O)OC(C)C)cnc3n2)c1 [Compound 40],–,–,185 nM,–,–
Cc1cnc(C(=O)Nc2cccc(-c3cn4cc(NC(=O)OC(C)C)cnc4n3)c2)s1 [Compound 41],–,–,4400 nM,–,–
CC(C)OC(=O)Nc1cnc2nc(-c3cccc(NC(=O)C4CC4)c3)cn2c1 [Compound 42],–,–,1700 nM,–,–
Cc1nc(C)c(C(=O)Nc2ccc(F)c(-c3cn4cc(NC(=O)c5nccn5C)cnc4n3)c2)o1 [Compound 174],–,–,483 nM,–,–

SMILES,"EC50 [1, 5]","EC50 [2, 6]",EC50 ([3]; inhibition of proliferation),"EC50 [1, 7]",further results
"O=C(Nc1ccc(F)c(-c2cn3cc(Br)cnc3n2)c1)C1CCCC1 [Compound 196, N-(3-(6-bromoimidazo[1,2-a]pyrimidin-2-yl)-4-fluorophenyl)cyclopentanecarboxamide]",6.52 µM,–,1860 nM,–,–
O=C(Nc1ccc(F)c(-c2cn3cc(Br)cnc3n2)c1)c1ccccc1 [Compound 197],2.49 µM,–,491 nM,–,–
O=C(Nc1ccc(F)c(-c2cn3cc(Br)cnc3n2)c1)N1CCOCC1 [Compound 515],–,–,–,7.37 µM,EC50 [3]: 13500 nM
"O=CNc1ccc(F)c(-c2cn3cc(Br)cnc3n2)c1 [Compound 531, N-(3-(6-bromoimidazo[1,2-a]pyrimidin-2-yl)-4-fluorophenyl)formamide]",–,–,–,> 25 µM,EC50 [3]: > 50000 nM
"O=CNc1cnc2nc(-c3cc(NC(=O)N4CCCC4)ccc3F)cn2c1 [Compound 533, N-(4-fluoro-3-(6-formamidoimidazo[1,2-a]pyrimidin-2-yl)phenyl)pyrrolidine-1-carboxamide]",–,–,–,–,EC50 [3]: 1540 nM
Cc1nc(C)c(C(=O)N(C)c2ccc(F)c(-c3cn4cc(NC(C)C)cnc4n3)c2)o1 [Compound 557],–,–,–,> 25 µM,"EC50 [2, 8]: > 50 µM; EC50 [4, 9]: > 20 µM"
Cc1nc(C)c(C(=O)Nc2ccc(F)c(-c3cn4cc(N5CCC5)cnc4n3)c2)o1 [Compound 559],–,–,–,> 25 µM,"EC50 [2, 8]: > 50 µM; EC50 [4, 9]: > 20 µM"
"O=C(Nc1ccc(F)c(-c2cn3cc(OCC4CC4)cnc3n2)c1)N1CCCC1 [Compound 562, N-(3-(6-(cyclopropylmethoxy)imidazo[1,2-a]pyrimidin-2-yl)-4-fluorophenyl)pyrrolidine-1-carboxamide]",–,–,–,0.16 µM,"EC50 [2, 8]: 0.245 µM; EC50 [4, 9]: 0.046 µM"
"Cc1nc(C)c(C(=O)Nc2ccc(F)c(-c3cn4cc(N5CCN(C)CC5)cnc4n3)c2)o1 [Compound 565, N-(4-fluoro-3-(6-(4-methylpiperazin-1-yl)imidazo[1,2-a]pyrimidin-2-yl)phenyl)-2,4-dimethyloxazole-5-carboxamide]",–,–,–,–,EC50 ([1]; read-out: L. donovani amastigotes EC50 (μM)): 12.3 µM; EC50 ([2]; read-out: L. donovani Macrophage EC50 (μM)): 6.27 µM; EC50 ([4]; read-out: T cruzi EC50 (μM)): 11.2 µM
"Nc1cnc2nc(-c3ccc(F)c(NC(=O)N4CCCC4)c3)cn2c1 [Compound 568, N-(5-(6-aminoimidazo[1,2-a]pyrimidin-2-yl)-2-fluorophenyl)pyrrolidine-1-carboxamide]",–,–,–,–,EC50 [3]: 9840 nM
CC(=O)Nc1ccc(F)c(-c2cn3cc(N)cnc3n2)c1 [Compound 569],–,–,–,> 25 µM,EC50 [3]: > 50000 nM
Cc1nc(C)c(C(=O)Nc2ccc(F)c(-c3cn4cc(-c5cccc(N6CCNCC6)n5)cnc4n3)c2)o1 [Compound 572],–,–,–,1.94 µM,"EC50 [2, 8]: 2.36 µM; EC50 [4, 9]: 0.394 µM"
"O=C(Nc1ccc(F)c(-c2cn3cc(-c4ccccc4)cnc3n2)c1)c1ccc(F)o1 [Compound 576, 5-fluoro-N-(4-fluoro-3-(6-phenylimidazo[1,2-a]pyrimidin-2-yl)phenyl)furan-2-carboxamide]",–,–,–,0.526 µM,"EC50 [2, 8]: 0.807 µM; EC50 [4, 9]: 0.05 µM"
Nc1cnc2nc(-c3cccc(NC(=O)N4CCCC4)c3F)cn2c1 [Compound 580],–,–,–,> 25 µM,EC50 [3]: > 50000 nM
"Cc1nc(C)c(C(=O)Nc2ccc(F)c(-c3cn4cc(-c5ccc(CCO)cn5)cnc4n3)c2)o1 [Compound 585, N-(4-fluoro-3-(6-(5-(2-hydroxyethyl)pyridin-2-yl)imidazo[1,2-a]pyrimidin-2-yl)phenyl)-2,4-dimethyloxazole-5-carboxamide]",–,–,–,–,EC50 [3]: 414 nM
"CC1(c2nc(Nc3ccc(F)c(-c4cn5cc(C6CC6)cnc5n4)c3)no2)COC1 [Compound 595, N-(3-(6-cyclopropylimidazo[1,2-a]pyrimidin-2-yl)-4-fluorophenyl)-5-(3-methyloxetan-3-yl)-1,2,4-oxadiazol-3-amine]",–,–,–,> 25 µM,"EC50 [2, 8]: > 50 µM; EC50 [4, 9]: 9.17 µM"
CC(C)(CO)c1nc(Nc2ccc(F)c(-c3cn4cc(C5CC5)cnc4n3)c2)no1 [Compound 596],–,–,–,> 21.2 µM,"EC50 [2, 8]: 0.075 µM; EC50 [4, 9]: 3.74 µM"
